In ChEMBL document CHEMBL3734677, “EVALUATION OF AROMATIC 6-SUBSTITUTED THIENOPYRIMIDINES AS SCAFFOLDS AGAINST PARASITES THAT CAUSE TRYPANOSOMIASIS, LEISHMANIASIS, AND MALARIA” (Medchemcomm, 2015):

Tested on: Trypanosoma brucei brucei
Experiment: Antiparasitic activity against bloodstream Trypanosoma brucei bruei CA427 after 48 hrs by cytometry
Format: functional, organism-based
Settings: CA427, 48 h

EC50: 260 nM
Compound: Fc1cccc(COc2ccc(Nc3ncnc4cc(C#C[C@@H]5CCCN5)sc34)cc2Cl)c1
